Like-named read-outs stand apart in the source and are kept apart here.
Key:
[1] = MTT cell viability assay (cytotoxicity); format: cell-based, monkey; settings: monkey, cytotoxicity towards COS A6 cells cultured in the absence of FCS, read-out: LD50 (the source's name)
Description: (§1) Ex vivo Assay of HIV-1 Polyprotein Processing. COS A6 cells were the result of stable integration of the vector HIV-gpt by transfection of COS-7 cells. This SV40-based vector consists of the HIV-1 HXB2 strain proviral genome where the gp160 sequences were replaced by the […] (gpt) gene. Following transfection, the cells were placed under selection for gpt expression by adding mycophenolic acid to the media. Surviving cells were later cloned and assayed for expression of gag p24 protein by ELISA and Western blots of culture supernatants and whole cell extracts. The cloned COS A6 cell line was maintained in DME H21 supplemented with 10% dialyzed and refiltered fetal calf serum (FCS), antibiotics (100 U/ml penicillin G, 100 µg/ml streptomycin sulfate), hypoxanthine (14 µg/ml), xanthine (250 µg/ml), and mycophenolic acid (25 µg/ml), at 37°C and 5% CO2.
(§2) MTT Cell Viability Assay. Cell survival was assessed by a quantitative colorimetric assay. The tetrazolium salt 3-(4,5-dimethylthiazol-2-yl)2,5-diphenyltetrazolium bromide (MTT) is cleaved by dehydrogenases in active mitochondria of living cells to yield a change in color from yellow to purple. To obtain the LD50 values for each compound, the concentration was determined at which the absorbance at 550-570 nm was half of that for the untreated cells. Compounds were tested in duplicate, in serial dilutions generally ranging from 10-250 µM concentrations in the presence of 0-0.1% DMSO. MTT assays were carried out in both the presence and absence of 10% FCS.
(§3) Cytotoxicity of compounds (LD50) and their ability to inhibit capsid protein processing ex vivo during 4 hour incubations (IC50) were studied. A plasmid which encodes the HIV-1 proviral genome, with the exception of the […] envelope protein, was stably introduced into the monkey cell line COS 7. Cloned progeny, COS A6 cells, constitutively release viral capsids into the media. Inhibition of polyprotein processing was determined by measuring the amount of p24 present in the viral capsid samples with an ELISA assay. The decrease in the amount of detectable p24 antigen correlated with a specific inhibition of HIV PR activity, judged by the accumulation of capsid precursor in conjunction with a disappearance of the p24 mature protein band in Western blots. The MTT stain assay was used to obtain LD50 values for all the compounds tested.

[2] = biological target: T1, Recombinant HIV-1 protease (HIV-1 PR) (Human immunodeficiency virus type 1 group M subtype B, UniProt P03369); format: biochemical
T1 construct: Recombinant HIV-1 protease (HIV-1 PR) was expressed and purified; made in house; host or cells: E. coli strain D1210
Method: (§4) Recombinant Protein Preparation. Recombinant HIV-1 protease (HIV-1 PR) was expressed and purified from E. coli strain D1210 using the pSOD/PR179 vector. Recombinant HIV-2 protease (HIV-2 PR) and SIV protease (SIV PR) were expressed and purified from strain X90 using pTacTac vectors.
(§5) Enzyme Assays. HIV-1, HIV-2, and SIV PRs were assayed against the decapeptide corresponding to the HIV-1 PR C-terminal autoprocessing site, by means of a discontinuous HPLC assay. Recombinant human renin and porcine pepsin were obtained and assayed using standard conditions. Bovine cathepsin D and its chromogenic substrate were purchased from Sigma. The enzyme was assayed by standard methods.
Stock solutions of the porphyrin derivatives (1 µ M-10mM) in 100% DMSO were used in IC50 determinations. […] Control reactions contained 5% DMSO only. Enzymes were preincubated with inhibitor for 1 minute at 25°C, followed by addition of substrate to initiate the reaction. As earlier noted, assays were also carried out in the absence of DMSO, when possible.
Figure 1 is a Dixon plot of inventive embodiment 5 (which is a representative example of the other embodiments) in inhibition of HIV-1 protease, where purified HIV-1 protease (6 x 10^-1 mg/ml) was incubated with the inventive inhibitor in 50 mM sodium acetate buffer, pH 5.5, containing 1 mM dithiothreitol, 1 mM EDTA, and 1 M NaCl. […] The assay solutions were incubated for 30-45 minutes at 37° and enzyme activity was determined by quantitation of the hydrolysis products on HPLC.

[3] = biological target: T2, Recombinant HIV-2 protease (HIV-2 PR) (Human immunodeficiency virus type 2 subtype A, UniProt P04584); experiment: HIV-2 protease inhibition, discontinuous HPLC assay of decapeptide cleavage; format: biochemical
T2 construct: Recombinant HIV-2 protease (HIV-2 PR) and SIV protease (SIV PR) were expressed and purified; made in house; host or cells: strain X90 (E. coli by own knowledge)
T2 sequence (P04584 514-612 limits assumed): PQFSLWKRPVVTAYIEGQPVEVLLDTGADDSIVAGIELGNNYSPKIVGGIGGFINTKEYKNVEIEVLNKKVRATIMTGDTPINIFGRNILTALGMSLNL
Method: as §4, §5
(§6) Stock solutions of the porphyrin derivatives (1 µ M-10mM) in 100% DMSO were used in IC50 determinations. Since many of the derivatives were insoluble in buffer alone, including the free acid forms of the carborane compounds, DMSO was used to increase solubility and allow a comparison of the binding affinity. Compounds were added to buffer solutions containing additional DMSO to give a final concentration of 5%. Control reactions contained 5% DMSO only. Enzymes were preincubated with inhibitor for 1 minute at 25°C, followed by addition of substrate to initiate the reaction. As earlier noted, assays were also carried out in the absence of DMSO, when possible. Dipotassium salts of several of the inhibitors were soluble in aqueous solution and were assayed in the absence of DMSO for K1 and IC50 determinations.

SIV protease (SIV PR) = biological target: T3, SIV protease (SIV PR) (Simian immunodeficiency virus, UniProt P05896); experiment: SIV protease inhibition, discontinuous HPLC assay of decapeptide cleavage; format: biochemical; settings: absence of DMSO
T3 construct: SIV protease (SIV PR) were expressed and purified from strain X90; made in house; host or cells: strain X90 (E. coli by own knowledge)
T3 sequence (P05896 501-596): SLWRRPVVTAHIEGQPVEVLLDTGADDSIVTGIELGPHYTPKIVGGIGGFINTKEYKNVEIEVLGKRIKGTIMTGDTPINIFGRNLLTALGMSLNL
Method: as §4, §5
as §6, with “Dipotassium salts of several of the inhibitors were soluble in aqueous solution and were assayed in the absence of DMSO for K1 and IC50 determinations.” left out

Recombinant human renin = biological target: T4, Recombinant human renin (Homo sapiens, UniProt P00797); experiment: Renin inhibition, standard conditions; format: biochemical; settings: absence of DMSO
T4 sequence (P00797 67-406): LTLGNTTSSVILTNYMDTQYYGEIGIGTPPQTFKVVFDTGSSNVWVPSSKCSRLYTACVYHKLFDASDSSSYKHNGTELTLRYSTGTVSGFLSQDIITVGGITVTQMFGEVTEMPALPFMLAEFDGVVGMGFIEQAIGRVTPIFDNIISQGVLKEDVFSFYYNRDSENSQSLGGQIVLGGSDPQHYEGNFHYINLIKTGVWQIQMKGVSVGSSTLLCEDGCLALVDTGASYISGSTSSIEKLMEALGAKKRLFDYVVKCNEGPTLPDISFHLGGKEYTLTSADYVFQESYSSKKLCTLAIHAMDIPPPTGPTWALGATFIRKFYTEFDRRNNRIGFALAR
Method: as §5, §6

porcine pepsin = porcine pepsin (Sus scrofa, UniProt P00791); experiment: Pepsin inhibition, standard conditions; format: biochemical; settings: absence of DMSO
Chain of porcine pepsin (P00791 60-385): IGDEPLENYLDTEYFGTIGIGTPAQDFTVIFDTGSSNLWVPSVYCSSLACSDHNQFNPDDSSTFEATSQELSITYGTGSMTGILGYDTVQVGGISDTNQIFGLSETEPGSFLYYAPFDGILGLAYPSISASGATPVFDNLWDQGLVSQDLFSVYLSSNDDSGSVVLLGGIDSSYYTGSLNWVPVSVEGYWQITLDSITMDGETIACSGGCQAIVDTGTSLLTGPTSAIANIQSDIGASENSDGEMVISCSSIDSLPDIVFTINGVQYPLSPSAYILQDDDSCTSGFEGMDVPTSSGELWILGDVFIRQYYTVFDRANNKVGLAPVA
Method: as §5, §6

Bovine cathepsin D = biological target: T5, Bovine cathepsin D (Bos taurus, UniProt P80209); experiment: Cathepsin D inhibition, chromogenic substrate; format: biochemical; settings: absence of DMSO
T5 construct: purchased Sigma
T5 sequence (P80209 45-390): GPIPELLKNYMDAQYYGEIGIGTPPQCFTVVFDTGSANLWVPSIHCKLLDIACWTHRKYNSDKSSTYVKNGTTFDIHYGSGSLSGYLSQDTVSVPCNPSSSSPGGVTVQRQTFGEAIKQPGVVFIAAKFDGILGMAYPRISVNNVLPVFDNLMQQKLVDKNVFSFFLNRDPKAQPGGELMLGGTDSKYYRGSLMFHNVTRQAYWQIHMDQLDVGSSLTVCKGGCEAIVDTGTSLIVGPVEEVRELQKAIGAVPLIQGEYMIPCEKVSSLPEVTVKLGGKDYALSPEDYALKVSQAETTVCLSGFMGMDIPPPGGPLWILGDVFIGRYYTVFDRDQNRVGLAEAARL
Method: as §5, §6

COS A6 cells = experiment: MTT cell viability assay (cytotoxicity); format: cell-based, monkey; settings: cytotoxicity towards COS A6 cells cultured in the absence of FCS, read-out: LD50 (the source's name)
Description: as §1, §2, §3

C6 glioma = experiment: Colony survival (cytotoxicity); format: cell-based; settings: in the presence of FCS, read-out: LD50 (the source's name)
V79 CHO cells = experiment: Colony survival (cytotoxicity); format: cell-based; settings: in the presence of FCS, read-out: LD50 (the source's name)
mice = experiment: Tolerance in mice; format: in vivo; settings: doses as high as 200 mg/kg

CC1=C(C(COC(=O)c2ccc(N(C)C)cc2)OC(=O)c2ccc(N(C)C)cc2)c2cc3nc(cc4[nH]c(cc5[nH]c(cc1n2)c(C)c5CCC(=O)O)c(CCC(=O)O)c4C)C(C(COC(=O)c1ccc(N(C)C)cc1)OC(=O)c1ccc(N(C)C)cc1)=C3C (centres unmarked) [Comparative Embodiment 9]
CC50 [1]: > 250 µM

CC1=C(C(COC(=O)c2ccccc2)OC(=O)c2ccccc2)c2cc3nc(cc4[nH]c(cc5[nH]c(cc1n2)c(C)c5CCC(=O)O)c(CCC(=O)O)c4C)C(C(COC(=O)c1ccccc1)OC(=O)c1ccccc1)=C3C (centres unmarked) [Comparative Embodiment 10]
CC50 [1]: 250 µM

CC1=C(C(COC(=O)c2ccc3ccccc3c2)OC(=O)c2ccc3ccccc3c2)c2cc3nc(cc4[nH]c(cc5[nH]c(cc1n2)c(C)c5CCC(=O)O)c(CCC(=O)O)c4C)C(C(COC(=O)c1ccc2ccccc2c1)OC(=O)c1ccc2ccccc2c1)=C3C (centres unmarked) [Comparative Embodiment 11]
CC50 [1]: 250 µM

CC1=C(C(O)CO)c2cc3nc(cc4[nH]c(cc5[nH]c(cc1n2)c(C)c5CCC(=O)O)c(CCC(=O)O)c4C)C(C(O)CO)=C3C (centres unmarked) [Comparative Embodiment 12]
CC50 [1]: 250 µM

tetra-carborane carboxylate ester of 2,4-Di(α,β-dihydroxyethyl)deuteroporphyrin (IX) [Inventive Embodiment 1]
IC50 ([2]; absence of DMSO, dipotassium salts in aqueous solution, read-out: IC50 HIV-1 PR): 0.05 µM | fold more effective for HIV-1 PR than for HIV-2 and SIV PRs ([2]; from Table 4, absence of DMSO): approximately 5 fold | fold more inhibitory for HIV-1 PR compared to cellular aspartyl proteases ([2]; from Table 4, absence of DMSO, listed as Inventive embodiment 1): at least 60 fold | fold more inhibitory for HIV-1 PR compared to cellular aspartyl proteases ([2]; from Table 4, absence of DMSO, listed as inventive embodiment 1): at least a sixty-fold | IC50 ([2]; in the presence of 5% DMSO, read-out: IC50 in vitro HIV-1): 0.185 µM | decrease of inhibition of HIV-1 PR by fetal calf serum ([2]; incubation with 0.1% FCS, 50 nM inhibitor): more than 50% | IC50 ([2]; matches the series without DMSO, read-out: IC50 HIV-1 protease): 0.05 µM | IC50 ([3]; absence of DMSO, dipotassium salts in aqueous solution, read-out: IC50 HIV-2 PR): 0.23 µM | IC50 ([3]; in the presence of 5% DMSO, read-out: IC50 in vitro HIV-2): 0.7 µM | IC50 ([3]; matches the series without DMSO, read-out: IC50 HIV-2 protease): 0.23 µM | IC50 (SIV protease (SIV PR)): 0.25 µM | IC50 (Recombinant human renin): 3 µM | IC50 (porcine pepsin): 4 µM | IC50 (Bovine cathepsin D): 10 µM | CC50 (COS A6 cells): 25 µM | CC50 (C6 glioma): 100 to 125 µM | CC50 (V79 CHO cells): ≥ 150 µM | tolerance in mice (morbidity or mortality) (mice): no apparent signs of morbidity or mortality | concentrations readily prepared in water (water solubility): 100 to 200 mg/mL

— patent EP0658109B1, “METALLO PORPHYRIN COMPOSITIONS” (priority 1992, dated 1994)
